Measured values reported in patent US20240270821A1, “GIP/GLP1/GCG TRI-RECEPTOR AGONISTS AND USES THEREOF” (priority 2023, published 2024).
Where two headings read alike, the source gives them in different places. Starred links: 1 amine or outer side, 2 acyl side, 3 side chain; linkers in the order of their positions; H or OH if unused. Non-standard residues stand in square brackets, D forms with d. Groups on a side chain read outwards from the residue. *: point of attachment. C20 diacid = O=C(O)CCCCCCCCCCCCCCCCCCC(=O)*; C18 diacid = O=C(O)CCCCCCCCCCCCCCCCC(=O)*; γGlu = O=C(O)[C@H](CCC(=O)[*:2])N[*:1]; 4Pal = N[C@@H](Cc1ccncc1)C(=O)O; αMeL = CC(C)C[C@](C)(N)C(=O)O; Orn = NCCC[C@H](N)C(=O)O; AEEA = NCCOCCOCC(=O)O; Aib = CC(C)(N)C(=O)O

Assays:
Format in all cases: cell-based
human GLP1-R = human GLP1-R (Homo sapiens, UniProt P43220); test: GLP1-R internalization assay in HEK293 cells; details: for Internalization % TOP: normalized to maximum concentration of GLP-1 (100%)
hGcgR = hGcgR (Homo sapiens, UniProt P47871); test: Functional cAMP activation in the presence of 0.1% casein (no HSA);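 further: intracellular cAMP rise after 30 min at 37 °C, read by HTRF against a cAMP standard curve, scaled from buffer only (0%) to maximal control ligand response (100%)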
hGIPR [1] = target: T1, hGIPR (Homo sapiens, UniProt P48546); test: Functional cAMP activity in the presence of 1% HSA
T1 sequence (P48546 22-466): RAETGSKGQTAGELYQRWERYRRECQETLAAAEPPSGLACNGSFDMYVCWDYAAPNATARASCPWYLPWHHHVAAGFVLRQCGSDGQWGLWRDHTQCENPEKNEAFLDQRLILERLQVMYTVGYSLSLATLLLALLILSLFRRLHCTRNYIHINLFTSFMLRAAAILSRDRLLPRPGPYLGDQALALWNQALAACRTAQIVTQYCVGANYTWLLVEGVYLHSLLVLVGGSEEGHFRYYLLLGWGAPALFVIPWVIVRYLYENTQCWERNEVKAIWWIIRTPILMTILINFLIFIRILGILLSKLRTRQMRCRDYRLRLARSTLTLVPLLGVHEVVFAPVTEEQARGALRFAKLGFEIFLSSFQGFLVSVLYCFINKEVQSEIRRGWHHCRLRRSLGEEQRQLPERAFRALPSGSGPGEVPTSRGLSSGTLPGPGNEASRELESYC

hGIPR [2] = target: T1, hGIPR; test: Functional cAMP activation in the presence of 0.1% casein (no HSA);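 on Relative cAMP EC50, hGIPR: intracellular cAMP rise after 30 min at 37 °C read by HTRF against a standard curve, scaled between buffer alone (0%) and top control ligand concentration (100%), four-parameter fit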;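 on Relative cAMP EC50, hGLP-1R: intracellular cAMP rise after 30 min at 37 °C read by HTRF, normalized between buffer only (0%) and maximal control ligand (100%), four-parameter variable-slope fit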
hGLP-1R [3] = target: T2, hGLP-1R (Homo sapiens, UniProt P43220); test: Functional cAMP activity in the presence of 1% HSA
human GcgR = human GcgR (Homo sapiens, UniProt P47871); test: Functional cAMP activity in the presence of 1% HSA
hGLP-1R [4] = target: T2, hGLP-1R; test: Functional cAMP activation in the presence of 0.1% casein (no HSA);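 on Relative cAMP EC50, hGIPR: intracellular cAMP rise after 30 min at 37 °C read by HTRF against a standard curve, scaled between buffer alone (0%) and top control ligand concentration (100%), four-parameter fit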;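 on Relative cAMP EC50, hGLP-1R: intracellular cAMP rise after 30 min at 37 °C read by HTRF, normalized between buffer only (0%) and maximal control ligand (100%), four-parameter variable-slope fit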
[5] = HEK293 cells expressing SNAP-GLP-1R, read-out: GLP1R Internalization EC50
[6] = in the presence of 0.1% casein (no HSA), geometric mean, read-out: Relative cAMP EC50, hGcgR
[7] = in the presence of 0.1% casein (no HSA), geometric mean, read-out: Relative cAMP EC50, hGIPR
[8] = read-out: cAMP Rel EC50, hGLP-1R
[9] = in the presence of 0.1% casein (no HSA), geometric mean, read-out: Relative cAMP EC50, hGLP-1R

Sequence of human GcgR (P47871 26-477): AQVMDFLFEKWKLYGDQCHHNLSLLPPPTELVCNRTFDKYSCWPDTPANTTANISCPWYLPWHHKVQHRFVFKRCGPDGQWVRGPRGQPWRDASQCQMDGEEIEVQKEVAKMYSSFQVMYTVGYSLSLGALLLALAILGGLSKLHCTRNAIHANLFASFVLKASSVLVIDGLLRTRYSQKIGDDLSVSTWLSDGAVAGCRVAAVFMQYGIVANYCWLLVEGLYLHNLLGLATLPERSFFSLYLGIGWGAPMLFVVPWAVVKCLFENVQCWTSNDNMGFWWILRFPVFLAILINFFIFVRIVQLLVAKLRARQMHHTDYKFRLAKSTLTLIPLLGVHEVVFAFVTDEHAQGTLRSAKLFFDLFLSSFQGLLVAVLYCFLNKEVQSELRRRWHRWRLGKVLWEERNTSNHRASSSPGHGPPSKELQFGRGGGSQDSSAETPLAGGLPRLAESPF
Sequence of hGcgR (P47871 26-477): as above
T2 sequence (P43220 24-463): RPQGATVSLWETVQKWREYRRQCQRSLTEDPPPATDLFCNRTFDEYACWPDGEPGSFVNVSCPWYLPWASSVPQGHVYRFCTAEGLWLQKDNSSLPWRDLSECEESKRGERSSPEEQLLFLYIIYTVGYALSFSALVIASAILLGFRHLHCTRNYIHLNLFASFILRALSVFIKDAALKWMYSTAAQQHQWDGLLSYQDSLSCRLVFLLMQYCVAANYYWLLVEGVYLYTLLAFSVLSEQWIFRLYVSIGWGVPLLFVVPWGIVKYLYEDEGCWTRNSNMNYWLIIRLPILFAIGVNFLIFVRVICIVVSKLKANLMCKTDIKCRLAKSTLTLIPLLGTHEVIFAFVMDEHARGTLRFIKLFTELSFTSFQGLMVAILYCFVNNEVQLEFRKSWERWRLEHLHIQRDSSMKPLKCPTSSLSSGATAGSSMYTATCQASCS
Sequence of human GLP1-R (P43220 24-463): as above

Substance	EC50 (human GLP1-R; [5]) [nM]	Internalization % TOP (human GLP1-R) [%]	EC50 (hGcgR; [6]) [nM]	EC50 (hGIPR [1]; read-out: cAMP Rel EC50, hGIPR) [nM]	EC50 (hGIPR [2]; [7]) [nM]	EC50 (hGLP-1R [3]; [8]) [nM]	EC50 (human GcgR; read-out: cAMP Rel EC50, hGcgR) [nM]	EC50 (hGLP-1R [4]; [9]) [nM]	EC50 (human GLP1-R) [nM]	EC50 (hGcgR) [nM]	EC50 (hGIPR [1]) [nM]	EC50 (hGIPR [2]) [nM]	EC50 (hGLP-1R [3]) [nM]	EC50 (human GcgR) [nM]	EC50 (hGLP-1R [4]) [nM]
H-Y[Aib]QGTFTSDFS[Orn][αMeL]LDKK([AEEA-AEEA-γGlu-C18 diacid])AQ[Aib]AFIEYLLE[Aib]GHSSGAPPPSGS-NH2 [Example 181]	116	47.5	6.25	12.7	0.133	365	772	4.39							
H-Y[Aib]QGTFTSDFS[Orn][αMeL]LDKK([AEEA-AEEA-γGlu-C18 diacid])AQ[Aib]AFIEYLLE[Aib]GPSSGAPPPSGE-NH2 [Example 111]	49.1	46.4	4.25	10.4	0.0888	878	1260	5.06							
H-Y[Aib]QGTFTSDFS[Orn][αMeL]LDKK([AEEA-AEEA-γGlu-C18 diacid])AQ[Aib]AFIEYLLE[Aib]GPSSGEPPPSGS-NH2 [Example 166]	74.6	44.2	3.82	21	0.118	1500	724	6.96							
H-Y[Aib]QGTFTSDFS[Orn][αMeL]LDKK([AEEA-AEEA-γGlu-C18 diacid])AQ[Aib]AFIEYLLE[Aib]GPSSGEPPPSGT-NH2 [Example 167]	75.9	44.7	5.05	24.7	0.101	1300	938	6.19							
H-Y[Aib]QGTFTSDFS[Orn][αMeL]LDKK([AEEA-AEEA-γGlu-C18 diacid])AQ[Aib]AFIEYLLE[Aib]G[4Pal]SSGAPPPSGS-NH2 [Example 183]	100	45.4	3.83	13.7	0.0759	295	504	5.03							
H-Y[Aib]QGTFTSDFS[Orn][αMeL]LDKK([AEEA-AEEA-γGlu-C18 diacid])AQ[Aib]AFIEYLLE[dA]GPSSGEPPPSGE-NH2 [Example 117]	45.5	51	4.75	29.9	0.267	524	867	6.4							
H-Y[Aib]QGTFTSDFS[Orn][αMeL]LDKK([AEEA-AEEA-γGlu-C18 diacid])AQ[Aib]AFIEYLLE[dA]GPSSGEPPPSGQ-NH2 [Example 157]	60.3	53.3	4.16	22.2	0.183	496	838	3.04							
H-Y[Aib]QGTFTSDFS[Orn][αMeL]LDKK([AEEA-AEEA-γGlu-C18 diacid])AQ[Aib]AFIEYLLE[dA]GPSSGHPPPSGS-NH2 [Example 253]	81.6	55.2	6.62	26.6	0.115	355	963	2.2							
H-Y[Aib]QGTFTSDFS[Orn][αMeL]LDKK([AEEA-AEEA-γGlu-C18 diacid])AQ[Aib]AFIEYLLE[dA]GPSSGHPPPSG[4Pal]-NH2 [Example 256]	87.8	43.5	5.71	17.4	0.176	235	625	2.87							
H-Y[Aib]QGTFTSDFS[Orn][αMeL]LDKK([AEEA-AEEA-γGlu-C20 diacid])AQ[Aib]AFIEYLLE[Aib]GPSSGAPPPGEG-NH2 [Example 70]		61.3							60	6.04	27.4	0.102	620	717	2.71
H-Y[Aib]QGTFTSDFS[Orn][αMeL]LDKK([AEEA-AEEA-γGlu-C20 diacid])AQ[Aib]AFIEYLLE[Aib]GPSSGAPPPSEG-NH2 [Example 71]	58.8	68.6	8.74	48.1	0.105	1010	2800	3.12							
H-Y[Aib]QGTFTSDFS[Orn][αMeL]LDKK([AEEA-AEEA-γGlu-C20 diacid])AQ[Aib]AFIEYLLE[Aib]GPSSGEPPPGEG-NH2 [Example 69]	71.9	58.2	4.75	25.6	0.136	279	387	3.25							
H-Y[Aib]QGTFTSDFS[Orn][αMeL]LDKK([AEEA-γGlu-C18 diacid])AQ[Aib]AFIEWLLEGGHSSGAPPPSGE-NH2 [Example 122]	57.4	43.7	3.95	32.6	0.189	468	548	3.93							
H-Y[Aib]QGTFTSDFS[Orn][αMeL]LDKK([AEEA-γGlu-C18 diacid])AQ[Aib]AFIEWLLEGGHSSGAPPPSGT-NH2 [Example 171]	61.4	36.1	3.86	27.1	0.2	287	502	2.89							
H-Y[Aib]QGTFTSDFS[Orn][αMeL]LDKK([AEEA-γGlu-C18 diacid])AQ[Aib]AFIEWLLEGGPSSGAPPPSGS-NH2 [Example 168]	74.8	38.7	5.54	31.9	0.233	281	1270	2.44							
H-Y[Aib]QGTFTSDFS[Orn][αMeL]LDKK([AEEA-γGlu-C18 diacid])AQ[Aib]AFIEWLLEGGSSSGAPPPSGE-NH2 [Example 172]	121	41.4	3.38	29.3	0.174	457	605	3.5							
H-Y[Aib]QGTFTSDFS[Orn][αMeL]LDKK([AEEA-γGlu-C18 diacid])AQ[Aib]AFIEWLLEGGSSSGAPPPSGS-NH2 [Example 173]	97.1	38.6	3.6	49.9	0.168	293	745	2.32							
H-Y[Aib]QGTFTSDFS[Orn][αMeL]LDKK([AEEA-γGlu-C18 diacid])AQ[Aib]AFIEWLLEGGTSSGAPPPSGE-NH2 [Example 175]	116	49.2	4.92	29.6	0.218	386	579	4							
